Series [1] is described as follows: Plasma pharmacokinetics, naïve pooled non-compartmental analysis (days 0 and 28). Details: AUClast / AUC(0-t) / AUCINF / AUC(0-inf): concentration or dose not given beside the values. In kind it is in vivo, human. Particulars: for drug accumulation: between day 0 and 28; for AUC(0-t) / AUClast: to 8 hours for SOF, 24 hours for GS-331007 and DCV; for half-life: read-out: t1/2, terminal elimination half-life (converted); for AUC(0-inf): po; for AUC(0-inf) / AUCINF: extrapolated to infinity. As for the experimental part:
(§1) In addition, intensive drug level sampling was conducted in a subset of 40 participants, who were sequentially invited to join an ancillary PK study. In this subgroup, five samples were collected in each participant after the first dose of SOF/DCV and at day 28, according to one of two randomly assigned sampling schedules (A and B). In sampling schedule A, drug levels were measured at 0.5-, 2-, 4-, 6- and 24-hr post-dose; in sampling schedule B, drug levels were measured at 1-, 3-, 5-, 8- and 24-hr post-dose.
(§2) Drug quantification was performed using liquid chromatography-tandem mass spectrometer at Mahidol Oxford Tropical Medicine Research Unit, Bangkok. Two separate analytical assays were developed and validated to quantify SOF plus its metabolite GS-331007, and DCV, respectively. Full methodological details of the PK/PD analysis are provided in Appendix 1.
Intensive drug levels of SOF, its metabolite GS-331007, and DCV from the subset of 40 patients at days 0 and 28, together with any EOT samples at day 28, were analysed using non-compartmental analysis in PKanalix version 2020R1 ([Lixoft, 2022]). Two separate analyses were performed to characterise the pharmacokinetic properties of the study drugs.
In the first, naïve pooled analyses were performed separately on data from days 0 and 28 (not including EOT samples) to derive median pharmacokinetic parameters at each day. In these analyses, the median concentration at each protocol time was calculated. Individual concentration measurements below the LLOQ were set to LLOQ/2 when calculating the median values. It was assumed that the participants had no drug concentrations at time 0.
Sofosbuvir and GS-331007 were extracted from 100 µL of plasma using phospholipid removal in the 96-well plate format (Phree, 8E-S133-TGB, Phenomenex), followed by separation on a Gemini, 50 mm × 2.0 mm I.D. 5 µm, column (00B-4435-B0, Phenomenex). Quantification was performed using selected reaction monitoring for the transitions m/z 530.2–>243.2 (sofosbuvir), 536.2–>243.1 (isotope-labelled internal standard for sofosbuvir), 261.3–>113.1 (GS-331007), and 265.3–>113.1 (isotope-labelled internal standard for GS-331007).
The lower limit of quantification (LLOQ) was set to 1.95 ng/mL for sofosbuvir and 20.5 ng/mL for GS-331007. A total of 9 quality control samples (3×low, 3×mid and 3×high concentration) were analysed for each analyte within each batch of clinical samples (96-well plate), resulting in an accuracy of 2.81–2.93% RSE for sofosbuvir and 2.19–3.50% RSE for GS-331007.
DCV was extracted from 100 µL of plasma using supported liquid extraction in the 96-well plate format (ISOLUTE SLE +96 well plate, 820–0200 P01, Biotage), followed by separation on a Gemini, 50 mm × 2.0 mm I.D. 5 µm, column (00B-4435-B0, Phenomenex). Quantification was performed using selected reaction monitoring for the transitions m/z 739.5–>339.3 (DCV) and 747.5–>339.3 (isotope-labelled internal standard for DCV). The LLOQ was set to 1.64 ng/mL for DCV. A total of 9 quality control samples (3×low, 3×mid and 3×high concentration) were analysed within each batch of clinical samples (96-well plate), resulting in an accuracy of 2.46–2.62% RSE for DCV.
Maximum concentration (Cmax) and time to reach maximum concentration (tmax) were derived directly from the observed drug concentrations. The software’s automatic slope calculator was used to derive the elimination rate (λ) (adjusted R2 value with uniform weighting) and terminal elimination half-life (t1/2). The drug exposure measured as area under the concentration-time curve (AUC) was calculated for each drug using the trapezoidal method. Linear interpolation was used for acceding concentrations and log-linear interpolation for descending concentrations. For the individual analysis, the linear method was used for all measurements due to accumulation between the day 0 and day 28 measurements. […]

The nature of series [2]: Plasma drug exposure, individual non-compartmental analysis (days 0 and 28 pooled). In kind it is in vivo, human. On the set-up: AUC(0-t) / AUClast: concentration or dose not given beside the values. Particulars: median (5th-95th percentile); for AUC(0-t): human. On the procedure: as §1, §2
In the second analysis, data from days 0 and 28 were pooled for each individual. […] The mean value of drug concentrations was used if patients had two or more samples taken at the same time point. These derived individual drug exposures were used to evaluate the relationship between drug exposure and therapeutic outcome. It was assumed that the participants had no drug concentrations at time 0. In this analysis, the first measurement below LLOQ in a series of LLOQ samples was imputed as LLOQ/2 and the later measurements were ignored. In both approaches, SOF samples taken at ≥24 hr post-dose were excluded. […] In addition, outcome variables and the relationship between outcome variables and drug exposure were evaluated. Additional detail of the PK/PD analysis is provided in Appendix 1.
Maximum concentration (Cmax) and time to reach maximum concentration (tmax) were derived directly from the observed drug concentrations. The software’s automatic slope calculator was used to derive the elimination rate (λ) (adjusted R2 value with uniform weighting) and terminal elimination half-life (t1/2). The drug exposure measured as area under the concentration-time curve (AUC) was calculated for each drug using the trapezoidal method. Linear interpolation was used for acceding concentrations and log-linear interpolation for descending concentrations. For the individual analysis, the linear method was used for all measurements due to accumulation between the day 0 and day 28 measurements. Both the AUC to the last time point (AUClast, 8 hours for SOF and 24 hours for GS-331007 and DCV) and AUC to infinity (AUCinf) were calculated.
Two different sampling schedules were used to collect pharmacokinetic samples on day 0 and day 28, resulting in an overlapping sampling profile overall. Therefore, data collected within an individual on a specific day was not dense enough to justify a non-compartment analysis. […] Two separate pharmacokinetic analyses were carried out. A naïve-pooled analysis was performed separately conducted on day 0 and 28 data. […] Therefore, a second analysis was performed in which the data from day 0 and 28 were pooled for each individual. […] However, the individual analysis should still generate median exposure values for each patient, which can be linked with treatment outcome. Another drawback is that no pre-dose samples were collected.

For series [3] the following is noted: cited from earlier work; for dose proportionality of AUC: dose range of 200–1200 mg, ref Smolders et al., 2019.
Setting [4] is: individual analysis, all patients (n=37).

Like-named read-outs stand apart in the source and are kept apart here.

As to `COC(=O)N[C@H](C(=O)N1CCC[C@H]1c1nc(-c2ccc(-c3ccc(-c4c[nH]c([C@@H]5CCCN5C(=O)[C@@H](NC(=O)OC)C(C)C)n4)cc3)cc2)c[nH]1)C(C)C` [Daclatasvir, daclatasvir], the drug accumulation result in series [1] is on record as “Drug accumulation was observed”. Moreover, the Cmax (usually the peak of the concentration-time curve) in series [1] (human, oral, Day 28, plasma, read-out: Cmax) amounted to 1110 ng/mL; in series [1] (human, Day 0, plasma, oral SOF 400 mg + DCV 60 mg, read-out: Cmax), 1170 ng/mL. Moreover, the AUC(0-t) in series [1] (human, plasma, oral, Day 0) was found to be 11400 ng·h/mL; in series [1] (human, plasma, oral, Day 28) it was 12400 ng·h/mL; in series [2] (plasma, oral, 4-week cures (n=15), read-out: Median AUClast) it was 13000 ng·h/mL; in series [2] (plasma, oral, 4-week failures (n=8), read-out: Median AUClast) it was 13200 ng·h/mL; in series [2] (plasma, oral, 8-week cures (n=14), read-out: Median AUClast) it was 14200 ng·h/mL; in series [2] (plasma, oral, individual analysis, all patients (n=37), read-out: AUClast) it was 9770 ng·h/mL. Also, the half-life is 8.18 h in series [1] (human, plasma, oral, Day 28) and 7.31 h in series [1] (human, plasma, oral, Day 0). Also, the tmax in series [1] (human, plasma, oral, Day 0, read-out: tmax) was 3 h. For the same compound, the AUC(0-inf) (commonly the area under the concentration-time curve extrapolated to infinity) in series [1] (human, plasma, Day 0) is 12800 ng·h/mL; in series [1] (human, plasma, Day 28) it was 14400 ng·h/mL.

On to `C[C@@]1(F)[C@H](O)[C@@H](CO)O[C@H]1n1ccc(=O)[nH]c1=O` [GS-331007], for which the “dose proportionality of AUC” value in series [3] is on record as “near dose proportional”. In addition, the entries for the “t1/2, terminal elimination half-life” value in series [1] (Day 0) and in series [1] (Day 28) were 9.20 h and 12.4 h, respectively. The tmax in series [1] (Day 0) was 3.00 h; in series [1] (Day 28), 4.00 h. The Cmax in series [1] (Day 0, plasma, oral SOF 400 mg + DCV 60 mg) is 988 ng/mL; in series [1] (Day 28, plasma), 1,230 ng/mL. Moreover, the AUCINF was 12,700 h×ng/mL in series [1] (Day 0) and 20,400 h×ng/mL in series [1] (Day 28). For the same compound, the AUClast was 10,500 h×ng/mL in series [1] (Day 0), 14,600 h×ng/mL in series [1] (Day 28) and 3,430 (2,200-4,720) h×ng/mL in series [2] (setting [4]). Besides, the drug accumulation result in series [1] is recorded as “Drug accumulation was observed”. The figures for the “Median AUClast” value in series [2] (4-week cures (n=15)), in series [2] (4-week failures (n=8)) and in series [2] (8-week cures (n=14)) were 11,700 (8420–14,100) h×ng/ml, 15,100 (9240–19,700) h×ng/ml and 14,000 (10,200–17,400) h×ng/ml, respectively.

As to `CC(C)OC(=O)[C@H](C)N[P@](=O)(OC[C@H]1O[C@@H](n2ccc(=O)[nH]c2=O)[C@](C)(F)[C@@H]1O)Oc1ccccc1` [Sofosbuvir, sofosbuvir], the “dose proportionality of AUC” value in series [3] was “near dose proportional”. Further, the half-life result in series [3] (ref de Kanter et al., 2014) is “less than 1 hr”; in series [1] (human, in vivo, Day 0) it was 0.67 h; in series [1] (human, in vivo, Day 28), 0.65 h. The compound also showed a tmax in series [1] (Day 0) of 1.00 h. Further, the AUC(0-t) in series [1] (human, in vivo, Day 0) was found to be 1550 ng·h/mL; in series [1] (human, in vivo, Day 28), 1600 ng·h/mL; in series [2] (in vivo, 4-week cures (n=15), read-out: Median AUClast), 2360 ng·h/mL; in series [2] (in vivo, 4-week failures (n=8), read-out: Median AUClast), 2220 ng·h/mL; in series [2] (in vivo, 8-week cures (n=14), read-out: Median AUClast) it was 2120 ng·h/mL. For the same compound, the AUC(0-inf) in series [1] (human, in vivo, Day 0) was 1550 ng·h/mL; in series [1] (human, in vivo, Day 28), 1600 ng·h/mL. Also, the Cmax came out at 1320 ng/mL in series [1] (human, in vivo, Day 0, plasma, oral SOF 400 mg + DCV 60 mg, read-out: Cmax) and 1070 ng/mL in series [1] (human, in vivo, Day 28, plasma, read-out: Cmax). Also, in series [2] (setting [4]), the AUClast was 1,140 (598-2,150) h×ng/mL.

Source of the values: PMC9870305, “Efficacy of ultra-short, response-guided sofosbuvir and daclatasvir therapy for hepatitis C in a single-arm mechanistic pilot study” (eLife, 2023).
